Experimental data taken from ChEMBL document CHEMBL4402510, “Caprazamycins: Promising lead structures acting on a novel antibacterial target MraY” (Eur J Med Chem, 2019).
In brackets after ≈: the same amount, converted by molar mass.

Key:
[1] = system: Enterococcus faecium; assay: Antibacterial activity against Enterococcus faecium ATCC 19434; type: functional
[2] = system: Streptococcus pneumoniae; assay: Antibacterial activity against Streptococcus pneumoniae; type: functional
[3] = system: Staphylococcus aureus; assay: Antibacterial activity against methicillin resistant Staphylococcus aureus after 20 hrs by NCCLS-based two-fold broth dilution method; type: functional
[4] = target: T1, Phospho-N-acetylmuramoyl-pentapeptide-transferase (Staphylococcus aureus, UniProt P0C1R8); assay: Inhibition of MraY in Staphylococcus aureus
T1 sequence (P0C1R8 whole entry): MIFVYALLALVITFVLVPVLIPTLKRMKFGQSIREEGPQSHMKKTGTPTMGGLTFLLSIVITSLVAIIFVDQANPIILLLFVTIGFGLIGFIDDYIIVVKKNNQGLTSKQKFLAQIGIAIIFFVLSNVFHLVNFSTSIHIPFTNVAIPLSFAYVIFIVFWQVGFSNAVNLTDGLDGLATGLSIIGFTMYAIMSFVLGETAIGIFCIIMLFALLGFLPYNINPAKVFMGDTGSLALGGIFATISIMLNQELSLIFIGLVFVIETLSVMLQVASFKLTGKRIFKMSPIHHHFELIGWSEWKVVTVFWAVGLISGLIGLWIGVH

[5] = system: Enterococcus faecalis; assay: Antibacterial activity against t Enterococcus faecalis after 20 hrs by NCCLS-based two-fold broth dilution method; type: functional
[6] = system: Haemophilus influenzae; assay: Antibacterial activity against Haemophilus influenzae ATCC 10211; type: functional
[7] = system: Enterococcus faecalis; assay: Antibacterial activity against Enterococcus faecalis ATCC 29212; type: functional
[8] = system: Enterococcus faecalis; assay: Antibacterial activity against t Enterococcus faecalis VRE after 20 hrs by NCCLS-based two-fold broth dilution method; type: functional
[9] = system: Staphylococcus aureus; assay: Antibacterial activity against methicillin susceptible Staphylococcus aureus ATCC 29213; type: functional
[10] = system: Staphylococcus aureus; assay: Antibacterial activity against methicillin susceptible Staphylococcus aureus after 20 hrs by NCCLS-based two-fold broth dilution method; type: functional
[11] = system: Staphylococcus aureus; assay: Antibacterial activity against methicillin resistant Staphylococcus aureus SR3637; type: functional
[12] = system: Escherichia coli; assay: Antibacterial activity against Escherichia coli ATCC 25922; type: functional
[13] = system: Enterococcus faecium; assay: Antibacterial activity against Enterococcus faecium SR7917 (VRE); type: functional
[14] = system: Enterococcus faecium; assay: Antibacterial activity against t Enterococcus faecium after 20 hrs by NCCLS-based two-fold broth dilution method; type: functional
[15] = system: Enterococcus faecalis; assay: Antibacterial activity against Enterococcus faecalis SR7914 (VRE); type: functional
[16] = system: Enterococcus faecium; assay: Antibacterial activity against t Enterococcus faecium VRE after 20 hrs by NCCLS-based two-fold broth dilution method; type: functional
[17] = system: Escherichia coli; assay: Antibacterial activity against Escherichia coli after 20 hrs by NCCLS-based two-fold broth dilution method; type: functional
[18] = system: Pseudomonas aeruginosa; assay: Antibacterial activity against Pseudomonas aeruginosa PAO1 deltamexB; type: functional
[19] = system: Acinetobacter baumannii; assay: Antibacterial activity against Acinetobacter baumannii ATCC 19606; type: functional; conditions: ATCC 19606 = CIP 70.34 = JCM 6841
[20] = system: Pseudomonas aeruginosa; assay: Antibacterial activity against Pseudomonas aeruginosa YY165; type: functional
[21] = target: Phospho-N-acetylmuramoyl-pentapeptide-transferase (Escherichia coli, UniProt E2QF15); assay: Inhibition of MraY in Escherichia coli
[22] = system: Mycobacterium intracellulare; assay: Antibacterial activity against Mycobacterium intracellulare; type: functional
[23] = system: Mycobacterium avium; assay: Antibacterial activity against Mycobacterium avium; type: functional
[24] = system: Mycobacterium tuberculosis; assay: Antibacterial activity against Mycobacterium tuberculosis; type: functional
[25] = system: Mycolicibacterium smegmatis; assay: Antibacterial activity against Mycobacterium smegmatis; type: functional
[26] = system: Haemophilus influenzae; assay: Antibacterial activity against Haemophilus influenzae after 20 hrs by NCCLS-based two-fold broth dilution method; type: functional
[27] = system: Pseudomonas aeruginosa; assay: Antibacterial activity against Pseudomonas aeruginosa after 20 hrs by NCCLS-based two-fold broth dilution method; type: functional

Phospho-N-acetylmuramoyl-pentapeptide-transferase (Escherichia coli, UniProt E2QF15), sequence (E2QF15 whole entry): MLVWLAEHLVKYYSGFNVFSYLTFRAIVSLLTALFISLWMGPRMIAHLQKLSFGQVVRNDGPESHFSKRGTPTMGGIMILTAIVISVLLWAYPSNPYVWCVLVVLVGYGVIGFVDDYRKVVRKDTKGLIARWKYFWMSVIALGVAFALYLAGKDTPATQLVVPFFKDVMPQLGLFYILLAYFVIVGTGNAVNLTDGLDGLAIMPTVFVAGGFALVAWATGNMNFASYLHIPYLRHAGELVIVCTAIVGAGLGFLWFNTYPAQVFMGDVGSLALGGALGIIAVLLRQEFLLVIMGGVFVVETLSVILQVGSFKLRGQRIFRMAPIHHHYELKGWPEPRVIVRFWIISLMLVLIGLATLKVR

Row | SMILES | MIC [1] | MIC [2] | MIC ([3]; read-out: MIC) | IC50 [4] | MIC ([5]; read-out: MIC) | MIC [6] | MIC [7] | MIC ([8]; read-out: MIC) | MIC [9] | MIC ([10]; read-out: MIC) | MIC [11] | MIC [12] | MIC [13] | MIC [14] | MIC [15] | MIC ([16]; read-out: MIC) | MIC [18] | MIC [19] | MIC [20] | other results
1 | CCCCCCCCCCCCCCCC(=O)N[C@@H]1CCN[C@@H]([C@@H](O[C@@H]2O[C@H](CN)[C@@H](O)[C@H]2O)[C@H]2O[C@@H](n3ccc(=O)[nH]c3=O)[C@H](O)[C@@H]2O)C1 | 32 µg/mL (≈ 45 µM) | 64 µg/mL (≈ 89.9 µM) | 32 µg/mL (≈ 45 µM) | > 2.7 mM | 32 µg/mL (≈ 45 µM) | > 64 µg/mL | 32 µg/mL (≈ 45 µM) | 32 µg/mL (≈ 45 µM) | 16 µg/mL (≈ 22.5 µM) | 16 µg/mL (≈ 22.5 µM) | 32 µg/mL (≈ 45 µM) | 32 µg/mL (≈ 45 µM) | 16 µg/mL (≈ 22.5 µM) | 32 µg/mL (≈ 45 µM) | 32 µg/mL (≈ 45 µM) | 16 µg/mL (≈ 22.5 µM) | > 64 µg/mL | > 64 µg/mL | > 64 µg/mL | MIC [17]: 32 µg/mL (≈ 45 µM)
2 | NC[C@H]1O[C@@H](O[C@@H](CO)[C@H]2O[C@@H](n3ccc(=O)[nH]c3=O)[C@H](O)[C@@H]2O)[C@H](O)[C@@H]1O | – | – | – | – | – | – | – | – | – | – | – | – | – | – | – | – | – | – | – | IC50 [21]: 5 µM
3 | CO[C@@H]1[C@@H](OC)[C@H](C)O[C@@H](OC(=O)C[C@@H](C)CC(=O)O[C@@H](CCCCCCCCC(C)C)CC(=O)O[C@H]2CN(C)[C@@H]([C@H](O[C@@H]3O[C@H](CN)[C@@H](O)[C@H]3O)[C@H]3O[C@@H](n4ccc(=O)[nH]c4=O)[C@H](O)[C@@H]3O)C(=O)N(C)[C@@H]2C(=O)O)[C@@H]1OC | – | – | – | – | – | – | – | – | – | – | – | – | – | – | – | – | – | – | – | MIC [22]: 1.56 µg/mL (≈ 1.4 µM); MIC [23]: 0.1 µg/mL (≈ 0.0894 µM); MIC [24]: 1.56 µg/mL (≈ 1.4 µM); MIC [25]: 0.78 to 1.56 µg/mL (≈ 0.698 to 1.4 µM)
4 | CCCCCCCCCCCCCCCCC[C@@H]1CN[C@@H]([C@H](O[C@@H]2O[C@H](CN)[C@@H](O)[C@H]2O)[C@H]2O[C@@H](n3ccc(=O)[nH]c3=O)[C@H](O)[C@@H]2O)C(=O)N(C)[C@@H]1C(=O)O | 8 µg/mL (≈ 10.2 µM) | – | 4 µg/mL (≈ 5.1 µM) | – | 4 µg/mL (≈ 5.1 µM) | – | 8 µg/mL (≈ 10.2 µM) | 8 µg/mL (≈ 10.2 µM) | 8 µg/mL (≈ 10.2 µM) | 4 µg/mL (≈ 5.1 µM) | 8 µg/mL (≈ 10.2 µM) | – | 16 µg/mL (≈ 20.4 µM) | 8 µg/mL (≈ 10.2 µM) | 16 µg/mL (≈ 20.4 µM) | 8 µg/mL (≈ 10.2 µM) | – | – | – | –
5 | CC(=O)N[C@H]1CCN[C@H]([C@@H](O[C@@H]2O[C@H](CN)[C@@H](O)[C@H]2O)[C@H]2O[C@@H](n3ccc(=O)[nH]c3=O)[C@H](O)[C@@H]2O)C1 | > 64 µg/mL | > 64 µg/mL | – | > 4.2 mM | – | > 64 µg/mL | > 64 µg/mL | – | > 64 µg/mL | – | > 64 µg/mL | > 64 µg/mL | > 64 µg/mL | – | > 64 µg/mL | – | > 64 µg/mL | > 64 µg/mL | > 64 µg/mL | –
6 | CC(=O)N[C@H]1CCN[C@H]([C@H](O[C@@H]2O[C@H](CN)[C@@H](O)[C@H]2O)[C@H]2O[C@@H](n3ccc(=O)[nH]c3=O)[C@H](O)[C@@H]2O)C1 | > 64 µg/mL | > 64 µg/mL | – | 4 mM | – | > 64 µg/mL | > 64 µg/mL | – | > 64 µg/mL | – | > 64 µg/mL | > 64 µg/mL | > 64 µg/mL | – | > 64 µg/mL | – | > 64 µg/mL | > 64 µg/mL | > 64 µg/mL | –
7 | CCCCCCCCCCCCCCCC(=O)N[C@H]1CCN[C@H]([C@H](O[C@@H]2O[C@H](CN)[C@@H](O)[C@H]2O)[C@H]2O[C@@H](n3ccc(=O)[nH]c3=O)[C@H](O)[C@@H]2O)C1 | 8 µg/mL (≈ 11.2 µM) | > 64 µg/mL | 8 µg/mL (≈ 11.2 µM) | – | 8 µg/mL (≈ 11.2 µM) | 32 µg/mL (≈ 45 µM) | 8 µg/mL (≈ 11.2 µM) | 8 µg/mL (≈ 11.2 µM) | 8 µg/mL (≈ 11.2 µM) | 8 µg/mL (≈ 11.2 µM) | 8 µg/mL (≈ 11.2 µM) | 16 µg/mL (≈ 22.5 µM) | 4 µg/mL (≈ 5.62 µM) | 8 µg/mL (≈ 11.2 µM) | 8 µg/mL (≈ 11.2 µM) | 4 µg/mL (≈ 5.62 µM) | > 64 µg/mL | > 64 µg/mL | 32 µg/mL (≈ 45 µM) | MIC [26]: 32 µg/mL (≈ 45 µM); MIC [27]: 32 µg/mL (≈ 45 µM); MIC [17]: 16 µg/mL (≈ 22.5 µM)
8 | CCCCCCCCCCCCCCCC(=O)NC[C@@H]1C[C@H]2[C@@H](C(=O)N1CCCNC(=N)N)[C@H]([C@H]1O[C@@H](n3ccc(=O)[nH]c3=O)[C@H](O)[C@@H]1O)ON2CCCN | – | – | – | – | – | – | 16 µg/mL (≈ 20.6 µM) | – | 8 µg/mL (≈ 10.3 µM) | – | 8 µg/mL (≈ 10.3 µM) | – | 8 µg/mL (≈ 10.3 µM) | – | 16 µg/mL (≈ 20.6 µM) | – | – | – | – | MIC [3]: 8 µg/mL (≈ 10.3 µM); MIC [5]: 16 µg/mL (≈ 20.6 µM); MIC [8]: 16 µg/mL (≈ 20.6 µM); MIC [10]: 8 µg/mL (≈ 10.3 µM); MIC [16]: 8 µg/mL (≈ 10.3 µM)
